The values below come from patent US9205108B2, “Treatment of traumatic brain injury by using gallium compounds to reduce oxidative stress levels” (priority 2012, dated 2015).

In one test the test system is protein carbonyls. The experiment in a line: Protein carbonyl analysis (slot blot, 2,4-DNP) of whole brain homogenate after controlled cortical contusion. The format is in vivo, C57BL/6NHsd mice. The note with it: for Protein carbonyl: difference compared to control (sham): whole brain homogenate. On the procedure:
(§1) Twenty C57BL/6NHsd mice were used for a study. Mice were set into five groups: sham, 15 minutes saline, 15 minutes gallium, 30 minutes gallium, and 30 minutes saline. A moderate controlled cortical contusion was given to all animals except the four animals in the sham group. The 15 minutes gallium group was injected with 10 mg/kg gallium nitrate at 15 minutes post injury. The 15 minutes saline group was injected with saline at 15 minutes post injury. The 30 minutes gallium group was injected with 10 mg/kg gallium nitrate at 30 minutes post injury. The 30 minutes saline group was injected with saline at 30 minutes post injury. A sample size of 4 was used for each group except gallium nitrate treated samples at 15 minutes post injury (n=3), gallium nitrate treated samples at 30 minutes post injury (n=5), and saline treated animals at 30 minutes (n=3).
(§2) A gallium compound was delivered by injection, in particular, intraperitoneal injection. […] Due to this unequal pairing, statistics (Student's t-test) were performed using unpaired analysis. P values <0.05 were deemed significant. Western blots (slot blots) were run for all samples and immunoblotting was performed with the following antibodies 2,4-DNP (protein carbonyls) and anti-3-nitrotyrosine (protein nitration). All blots were run twice for reproducibility. All samples were compared to sham (craniotomy only, but no injury), which has been used as a baseline (control).
(§3) The two parameters for oxidative stress were run on whole brain homogenate using immunochemical detection.

For test [1] the following is noted: 100-300 mg/m²/day over 5-7 days; cited from earlier work.
The subject of the next test is 3-nitrotyrosine (3-NT). The experiment in a line: Protein nitration analysis (slot blot, anti-3-nitrotyrosine) of whole brain homogenate after controlled cortical contusion. The note with it: for Protein nitration (3-NT): difference compared to control (sham): whole brain homogenate. The format is in vivo, C57BL/6NHsd mice. On the procedure:
as §1, §2, §3
Protein nitration is determined by indexing levels of 3-nitrotyrosine (3-NT). […] The difference between saline groups and the gallium groups at 30 minutes was statistically significant.

Where [2] appears, read: 10 mg/kg intraperitoneal injection at 15 minutes post injury.
Setting [3] is: 10 mg/kg intraperitoneal injection at 30 minutes post injury.

On to `O=[N+]([O-])[O-].O=[N+]([O-])[O-].O=[N+]([O-])[O-].[Ga+3]` [Gallium nitrate, gallium nitrate], for which the “Protein carbonyl: difference compared to control (sham)” value with protein carbonyls (setting [2]) is reported as 17.5% reduction; in the test on protein carbonyls (setting [3]), 6.6% reduction. Besides, the “Oxidative stress (protein carbonyls), result in words” value with protein carbonyls (both time points (15 and 30 minutes post injury)) was “reduction in oxidative stress”. Moreover, the “Reduction of calcium excretion” value in test [1] is 70+18%. Further, the “Protein nitration (3-NT): difference compared to control (sham)” value was found to be 61.3% increase in the test on 3-nitrotyrosine (3-NT) (setting [2]) and 18.1% increase with 3-nitrotyrosine (3-NT) (setting [3]). Moreover, the “Levels of 3-NT, result in words” value was “increase in the levels of 3-NT” in the test with 3-nitrotyrosine (3-NT) (treatment at 15 minutes post injury) and “significant reduction in the levels of 3-NT” in the test with 3-nitrotyrosine (3-NT) (treatment at 30 minutes post injury, difference to saline group statistically significant).
